Key:
[1] = system: brain-dead body of a pig; conditions: adrenaline and noradrenaline at constant 0.4 ml/hour
Description: In this experiment, adrenaline and noradrenaline was added at a constant rate of 0.4 ml/hour.

[2] = system: brain-dead pigs; assay: More than 20 experiments with pigs using cocaine in combination with adrenaline and noradrenaline, blood pressure over 24 hours; assay type: in vivo, pig; conditions: from initiation of the intervention and over 24 hours
Description: The inventor has performed more than 20 experiments with pigs and using cocaine in combination with adrenaline and noradrenaline.

[3] = in vivo; cited from earlier work
[4] = system: brain-dead, heart-beating, respirated donor; conditions: blood circulation
Description: In order to test this hypothesis, other NET inhibitors were tested, such as desipramine and imipramine, which both are known to be NET inhibitors.

[5] = system: alpha-1; assay: Potency as replacement of noradrenaline (alpha-1-agonist)
Description: In some embodiments, the adrenaline and/or noradrenaline may be partly or entirely replaced by an equivalent substance. For example, phenylephrine is an alpha-1-agonist and may replace noradrenaline.

[6] = target: NET (norepinephrine transporter) (Homo sapiens, UniProt P23975); conditions: cited from earlier work
Chain of NET (norepinephrine transporter) (P23975 whole entry, species assumed): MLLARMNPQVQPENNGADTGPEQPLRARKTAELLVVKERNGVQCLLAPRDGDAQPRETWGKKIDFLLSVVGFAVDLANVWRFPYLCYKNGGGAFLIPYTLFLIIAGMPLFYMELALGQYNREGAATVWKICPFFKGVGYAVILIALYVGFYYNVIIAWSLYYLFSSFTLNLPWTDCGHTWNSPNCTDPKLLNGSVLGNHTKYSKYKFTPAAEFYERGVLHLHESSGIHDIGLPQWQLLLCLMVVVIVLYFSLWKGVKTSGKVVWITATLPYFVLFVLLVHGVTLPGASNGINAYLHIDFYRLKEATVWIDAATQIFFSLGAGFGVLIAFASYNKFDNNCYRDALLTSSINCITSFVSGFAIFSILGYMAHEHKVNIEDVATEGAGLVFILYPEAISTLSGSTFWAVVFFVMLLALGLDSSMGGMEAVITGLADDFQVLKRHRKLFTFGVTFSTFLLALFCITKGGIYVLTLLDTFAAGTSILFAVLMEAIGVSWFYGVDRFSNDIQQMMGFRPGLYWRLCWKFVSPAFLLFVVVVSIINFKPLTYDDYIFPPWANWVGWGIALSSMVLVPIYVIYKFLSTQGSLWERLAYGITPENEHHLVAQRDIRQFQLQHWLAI

[7] = system: blood pressure; conditions: in vivo; cited from earlier work
[8] = system: brain-dead body of a pig; assay: Experiment 2: infusion of desipramine solution with adrenaline and noradrenaline, blood pressure
Description: In addition 1 mg of adrenaline and 1 mg of noradrenaline was included in the solution.

CN(C)CCCN1c2ccccc2CCc2ccccc21 [imipramine, Imipramine]
blood pressure reached after bolus ([1]; bolus at 24.5 hours, from about 80 mmHg): about 100 mmHg

COC(=O)[C@H]1[C@@H](OC(=O)c2ccccc2)C[C@@H]2CC[C@H]1N2C [cocaine, benzoylmethyl ecgonine]
blood pressure maintained at a constant level [2]: 70 mmHg | half-life time [3]: about 1 hours | effect of bolus on blood pressure ([1]; bolus of 2 mg at 21 hours): increase of the blood pressure | time after which the effect of the bolus ceased ([1]; bolus of 2 mg at 21 hours): about 3 hours | effect of addition together with noradrenaline on noradrenaline needed for vasoconstriction [4]: much lower levels of noradrenaline

NC(=O)CC[C@@H]1NC(=O)[C@H](Cc2ccccc2)NC(=O)[C@H](Cc2ccc(O)cc2)NC(=O)[C@@H](N)CSSC[C@@H](C(=O)N2CCC[C@H]2C(=O)N[C@@H](CCCN=C(N)N)C(=O)NCC(N)=O)NC(=O)[C@H](CC(N)=O)NC1=O [ADH, vasopressin]
half-life-time [3]: about 15 minutes

CNC[C@H](O)c1cccc(O)c1 [phenylephrine]
times less potent as noradrenaline [5]: about 5 times

CNCCCC1c2ccccc2C=Cc2ccccc21 [Protriptylin, Protriptyline]
potency among typical NET inhibitors [6]: highest

CCN(CC)CC(=O)Nc1c(C)cccc1C [Lidocaine]
effect of infusion on blood pressure [7]: vasodilatation and a lowering of the blood pressure

CNCCCN1c2ccccc2CCc2ccccc21 [desipramine, Desipramine]
half-life time [3]: 30 h | mean pressure reached on infusion ([8]; 3 mg desipramine, 1 mg adrenaline, 1 mg noradrenaline in 50 ml, 1.7 then 3.2 ml/hour, from a mean pressure of about 40 mmHg): 80 mmHg | blood pressure after infusion rate was decreased ([8]; infusion decreased to 2.5 then 1.7 ml/hour, never decreased further): about 60 mmHg

CNCCCN1c2ccccc2CCc2ccc(Cl)cc21 [Norclomipramine]
potency among typical NET inhibitors [6]: highest
